According to patent publication US9149513B2, “Method and pharmacological composition for the diagnosis and treatment of male sub-fertility” (PERINESS LTD., priority 2006, dated 2015):

Tested on: intracellular sperm cell DNase
Assay: Inhibition of intracellular sperm cell DNase by citrate
Type: cell-based
Conditions: 10 mM citrate, up to 8 hours, activity measured every hour
Method: Sperm cells were subjected to three cycles of freezing and thawing and were then centrifuged for 10 min (27,000 g, 4° C.). […] 0.3 ml of the supernatant was added to 0.6 ml of DNase activity buffer and the mixture was measured in a spectrophotometer at 260 nm against a reference that contained only buffer and medium. Calibration curves were made using a commercial bovine DNase I. Sperm cell internal DNase was measured in Kunitz units. One Kunitz unit is defined as the amount of DNase that produces an increase of 1 O.D. per minute at 260 nm in a 1 cm pathlength at pH 5 at 25° C., in a reaction buffer that contains 5 mM MgSO4x7H2O, 0.1 M NaAcetate pH 5 and 4 mg % Calf thymus DNA. Plasma DNase was measured in Bartoov units. One Bartoov unit (BU) is defined as the amount of enzyme that produces a ΔA260 of 0.001 per min in 1 cm pathlength at pH 7.5 at 25° C., in a reaction buffer that contains 0.1M Tris, 10 mM CaCl2, 10 mM MnCl2 and 0.05 mg/ml calf thymus DNA.
In order to examine whether the DNase inhibitor citrate can inhibit intracellular sperm cell DNase, sperm cells were incubated with or without 10 mM citrate for up to 8 hours. The intracellular DNase activity was measured every hour and the sum of the DNase activity was calculated.

## O=C(O)CC(O)(CC(=O)O)C(=O)O [citrate]
  sum of intracellular DNase activity, % of control sperm cells: 43%
